{"source": "patent US20240189305A1", "about": "“THERAPEUTIC AGENT FOR CORONAVIRUS INFECTION” (FUJIFILM TOYAMA CHEMICAL CO., LTD., priority 2021, published 2024)", "system": "SARS-CoV-2", "assay": "Test example 1: placebo-controlled, stratified-randomized, multicenter, double-blind phase 3 study in COVID-19 patients with a risk factor for disease progression at an early stage after onset", "assay_type": "in vivo", "conditions": "patients 50 years or older, onset within 72 hours; oral 1,800 mg twice/day for 1 day + 800 mg twice/day for 9 days"}
{"smiles": "NC(=O)c1nc(F)cnc1O", "note": "[Compound A, 6-fluoro-3-hydroxy-2-pyrazinecarboxamide]", "values": [{"measurement": "therapeutic effect by primary endpoint (proportion of patients with disease progression up to Day 28) and/or secondary endpoints versus placebo", "value": "therapeutic effect is higher in the Compound A group than in the placebo group"}]}
